Key:
[1] = test system: COR-L105; assay: cells; assay type: functional, cell-based; conditions: Homo sapiens
Description: SANGER: Inhibition of human COR-L105 cell growth in a cell viability assay.

[2] = test system: ChaGo-K-1; assay: cells; assay type: functional, cell-based; conditions: Homo sapiens;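 further: growth inhibition of ChaGo-K-1 cells, read out with a cell viability assay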
Description: SANGER: Inhibition of human ChaGo-K-1 cell growth in a cell viability assay.

[3] = test system: D-392MG; assay: cells; assay type: functional, cell-based; conditions: Homo sapiens
[4] = test system: D-423MG; assay: cells; assay type: functional, cell-based; conditions: Homo sapiens
Description: SANGER: Inhibition of human D-423MG cell growth in a cell viability assay.

[5] = test system: EFO-27; assay: cells; assay type: functional, cell-based; conditions: Homo sapiens;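 further: growth inhibition of EFO-27 cells, read out with a cell viability assay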
Description: SANGER: Inhibition of human EFO-27 cell growth in a cell viability assay.

[6] = test system: HCC1395; assay: cells; assay type: functional, cell-based; conditions: Homo sapiens;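 further: growth inhibition of HCC1395 cells, read out by a cell viability assay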
Description: SANGER: Inhibition of human HCC1395 cell growth in a cell viability assay.

[7] = test system: HCC1419; assay: cells; assay type: functional, cell-based; conditions: Homo sapiens;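 further: growth inhibition of human HCC1419 cells, read out as cell viability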
Description: SANGER: Inhibition of human HCC1419 cell growth in a cell viability assay.

[8] = test system: HCC1954; assay: cells; assay type: functional, cell-based; conditions: Homo sapiens;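 further: growth inhibition of human HCC1954 cells, read out with a cell viability assay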
Description: SANGER: Inhibition of human HCC1954 cell growth in a cell viability assay.

[9] = test system: HOP-92; assay: cells; assay type: functional, cell-based; conditions: Homo sapiens;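 further: cell viability readout, with IC50 reflecting inhibition of HOP-92 cell growth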
Description: SANGER: Inhibition of human HOP-92 cell growth in a cell viability assay.

[10] = test system: HOS; assay: cells; assay type: functional, cell-based; conditions: Homo sapiens;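 further: growth inhibition of human HOS cells, read out with a cell viability assay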
Description: SANGER: Inhibition of human HOS cell growth in a cell viability assay.

[11] = test system: HPAF-II; assay: cells; assay type: functional, cell-based; conditions: Homo sapiens;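 further: growth inhibition of HPAF-II cells, read out with a cell viability assay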
Description: SANGER: Inhibition of human HPAF-II cell growth in a cell viability assay.

[12] = test system: HT1197; assay: cells; assay type: functional, cell-based, HT-1197; conditions: Homo sapiens
Description: SANGER: Inhibition of human HT-1197 cell growth in a cell viability assay.

[13] = test system: HuO-3N1; assay: cells; assay type: functional, cell-based; conditions: Homo sapiens;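 further: cell viability readout used to measure how strongly compounds suppress proliferation of human HuO-3N1 cells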
Description: SANGER: Inhibition of human HuO-3N1 cell growth in a cell viability assay.

[14] = test system: IGR-1; assay: cells; assay type: functional, cell-based; conditions: Homo sapiens;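 further: growth inhibition of human IGR-1 cells, read out with a cell viability assay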
Description: SANGER: Inhibition of human IGR-1 cell growth in a cell viability assay.

[15] = test system: LCLC-103H cell line; assay: cells; assay type: functional, cell-based; conditions: Homo sapiens
Description: SANGER: Inhibition of human LCLC-103H cell growth in a cell viability assay.

[16] = test system: LoVo; assay: cells; assay type: functional, cell-based; conditions: Homo sapiens;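 further: growth inhibition of human LoVo cells, read out with a cell viability assay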
Description: SANGER: Inhibition of human LoVo cell growth in a cell viability assay.

[17] = test system: M059J; assay: cells; assay type: functional, cell-based; conditions: Homo sapiens;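 further: growth inhibition of M059J cells, read out with a cell viability assay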
Description: SANGER: Inhibition of human M059J cell growth in a cell viability assay.

[18] = test system: NB17; assay: cells; assay type: functional, cell-based; conditions: Homo sapiens;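 further: growth inhibition of NB17 cells, read out with a cell viability assay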
Description: SANGER: Inhibition of human NB17 cell growth in a cell viability assay.

[19] = test system: NB7; assay: cells; assay type: functional, cell-based; conditions: Homo sapiens;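 further: growth inhibition of NB7 cells, read out with a cell viability assay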
Description: SANGER: Inhibition of human NB7 cell growth in a cell viability assay.

[20] = test system: NCI-H1651; assay: cells; assay type: functional, cell-based; conditions: Homo sapiens;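 further: Read-out is a cell viability assay, with IC50 expressing inhibition of NCI-H1651 cell growth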
Description: SANGER: Inhibition of human NCI-H1651 cell growth in a cell viability assay.

[21] = test system: NCI-H1792; assay: cells; assay type: functional, cell-based; conditions: Homo sapiens;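 further: growth inhibition of human NCI-H1792 cells, read out as cell viability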
Description: SANGER: Inhibition of human NCI-H1792 cell growth in a cell viability assay.

[22] = test system: NCI-H810; assay: cells; assay type: functional, cell-based; conditions: Homo sapiens;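 further: IC50 reflects inhibition of cancer cell line growth, read out with a cell viability assay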
Description: SANGER: Inhibition of human NCI-H810 cell growth in a cell viability assay.

[23] = test system: OE19; assay: cells; assay type: functional, cell-based; conditions: Homo sapiens;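 further: growth inhibition of OE19 cells, measured through a cell viability read-out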
Description: SANGER: Inhibition of human OE19 cell growth in a cell viability assay.

[24] = test system: S-117; assay: cells; assay type: functional, cell-based; conditions: Homo sapiens
Description: SANGER: Inhibition of human S-117 cell growth in a cell viability assay.

[25] = test system: SBC-5; assay: cells; assay type: functional, cell-based; conditions: Homo sapiens;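 further: cell viability assay read-out, IC50 is the concentration that inhibits growth of the cells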
Description: SANGER: Inhibition of human SBC-5 cell growth in a cell viability assay.

[26] = test system: SCC-4; assay: cells; assay type: functional, cell-based; conditions: Homo sapiens;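 further: growth inhibition of human SCC-4 cells, read out as cell viability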
Description: SANGER: Inhibition of human SCC-4 cell growth in a cell viability assay.

[27] = test system: SK-N-AS; assay: cells; assay type: functional, cell-based; conditions: Homo sapiens;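 further: growth inhibition of human SK-N-AS cells, measured with a cell viability assay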
Description: SANGER: Inhibition of human SK-N-AS cell growth in a cell viability assay.

[28] = test system: SN12C; assay: cells; assay type: functional, cell-based; conditions: Homo sapiens;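 further: growth inhibition of human SN12C cells, measured by a cell viability assay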
Description: SANGER: Inhibition of human SN12C cell growth in a cell viability assay.

[29] = test system: SNU-423; assay: cells; assay type: functional, cell-based; conditions: Homo sapiens
Description: SANGER: Inhibition of human SNU-423 cell growth in a cell viability assay.

[30] = test system: SW1573; assay: cells; assay type: functional, cell-based; conditions: Homo sapiens;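 further: growth inhibition of SW1573 cells, read out with a cell viability assay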
Description: SANGER: Inhibition of human SW1573 cell growth in a cell viability assay.

[31] = test system: SW756; assay: cells; assay type: functional, cell-based; conditions: Homo sapiens;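 further: growth inhibition of human SW756 cells, read out with a cell viability assay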
Description: SANGER: Inhibition of human SW756 cell growth in a cell viability assay.

[32] = test system: SW837; assay: cells; assay type: functional, cell-based; conditions: Homo sapiens;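 further: growth inhibition of SW837 cells, determined with a cell viability assay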
Description: SANGER: Inhibition of human SW837 cell growth in a cell viability assay.

[33] = test system: SW948; assay: cells; assay type: functional, cell-based; conditions: Homo sapiens;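 further: growth inhibition of SW948 cells, read out with a cell viability assay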
Description: SANGER: Inhibition of human SW948 cell growth in a cell viability assay.

[34] = test system: A-431; assay: cells; assay type: functional, cell-based; conditions: Homo sapiens;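 further: growth inhibition of A-431 cells, determined with a cell viability read-out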
Description: SANGER: Inhibition of human A431 cell growth in a cell viability assay.

[35] = test system: A549; assay: cells; assay type: functional, cell-based; conditions: Homo sapiens;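 further: growth inhibition of A549 cells, read out with a cell viability assay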
Description: SANGER: Inhibition of human A549 cell growth in a cell viability assay.

[36] = test system: ABC-1; assay: cells; assay type: functional, cell-based; conditions: Homo sapiens;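 further: growth inhibition of human ABC-1 cells, read out by a cell viability assay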
Description: SANGER: Inhibition of human ABC-1 cell growth in a cell viability assay.

[37] = test system: CAL-27; assay: cells; assay type: functional, cell-based; conditions: Homo sapiens;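 further: Viability-based readout, IC50 reflecting inhibition of CAL-27 cell growth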
Description: SANGER: Inhibition of human CAL-27 cell growth in a cell viability assay.

[38] = test system: CAL-72; assay: cells; assay type: functional, cell-based; conditions: Homo sapiens;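 further: cell viability assay measuring inhibition of proliferation in the CAL-72 cell line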
Description: SANGER: Inhibition of human CAL-72 cell growth in a cell viability assay.

[39] = test system: U-251; assay: cells; assay type: functional, cell-based; conditions: Homo sapiens;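 further: growth inhibition of human U-251 cells, read out through a cell viability assay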
Description: SANGER: Inhibition of human U251 cell growth in a cell viability assay.

[40] = test system: CFPAC-1; assay: cells; assay type: functional, cell-based; conditions: Homo sapiens;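 further: cell viability readout used to gauge suppression of CFPAC-1 cell proliferation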
Description: SANGER: Inhibition of human CFPAC-1 cell growth in a cell viability assay.

[41] = test system: DG-75; assay: cells; assay type: functional, cell-based; conditions: Homo sapiens;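 further: growth inhibition of DG-75 cells, read out with a cell viability assay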
Description: SANGER: Inhibition of human DG-75 cell growth in a cell viability assay.

[42] = test system: EHEB; assay: cells; assay type: functional, cell-based; conditions: Homo sapiens;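 further: growth inhibition of human EHEB cells, read out with a cell viability assay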
Description: SANGER: Inhibition of human EHEB cell growth in a cell viability assay.

[43] = test system: IM-9; assay: SANGER: Inhibition of human IM-9 cell growth in a cell viability assay.; assay type: functional, cell-based
[44] = test system: KMS-12-PE; assay: cells; assay type: functional, cell-based; conditions: Homo sapiens;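 further: growth inhibition of human KMS-12-PE cells, measured with a cell viability assay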
Description: SANGER: Inhibition of human KMS-12-PE cell growth in a cell viability assay.

[45] = test system: L-540; assay: cells; assay type: functional, cell-based; conditions: Homo sapiens;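 further: growth inhibition of the human L-540 cell line, read out with a viability assay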
Description: SANGER: Inhibition of human L-540 cell growth in a cell viability assay.

[46] = test system: LB996-RCC; assay: cells; assay type: functional, cell-based; conditions: Homo sapiens
Description: SANGER: Inhibition of human LB996-RCC cell growth in a cell viability assay.

[47] = test system: LOUCY; assay: cells; assay type: functional, cell-based; conditions: Homo sapiens;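 further: growth inhibition of human LOUCY cells, read out with a cell viability assay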
Description: SANGER: Inhibition of human LOUCY cell growth in a cell viability assay.

[48] = test system: MC-CAR; assay: cells; assay type: functional, cell-based; conditions: Homo sapiens;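 further: growth inhibition of the human MC-CAR cell line, read out by a cell viability assay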
Description: SANGER: Inhibition of human MC-CAR cell growth in a cell viability assay.

[49] = test system: MHH-CALL-2; assay: cells; assay type: functional, cell-based; conditions: Homo sapiens;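 further: growth inhibition of the cell line, read out in a cell viability assay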
Description: SANGER: Inhibition of human MHH-CALL-2 cell growth in a cell viability assay.

[50] = test system: NCI-H1417; assay: cells; assay type: functional, cell-based; conditions: Homo sapiens;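 further: human NCI-H1417 cells, growth inhibition determined with a cell viability readout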
Description: SANGER: Inhibition of human NCI-H1417 cell growth in a cell viability assay.

[51] = test system: NCI-H187; assay: cells; assay type: functional, cell-based; conditions: Homo sapiens;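 further: growth inhibition of NCI-H187 cells, read out as cell viability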
Description: SANGER: Inhibition of human NCI-H187 cell growth in a cell viability assay.

[52] = test system: NCI-H1963; assay: cells; assay type: functional, cell-based; conditions: Homo sapiens;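 further: cell growth inhibition of the human line, determined with a cell viability assay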
Description: SANGER: Inhibition of human NCI-H1963 cell growth in a cell viability assay.

[53] = test system: NCI-H322M; assay: cells; assay type: functional, cell-based; conditions: Homo sapiens;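 further: cell viability assay measuring inhibition of growth of human NCI-H322M cells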
Description: SANGER: Inhibition of human NCI-H322M cell growth in a cell viability assay.

[54] = test system: NCI-H524; assay: cells; assay type: functional, cell-based; conditions: Homo sapiens;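 further: growth inhibition of human NCI-H524 cells, read out through a cell viability assay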
Description: SANGER: Inhibition of human NCI-H524 cell growth in a cell viability assay.

[55] = test system: NCI-H719; assay: cells; assay type: functional, cell-based; conditions: Homo sapiens;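 further: growth inhibition of the cultured cell line, read out with a viability assay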
Description: SANGER: Inhibition of human NCI-H719 cell growth in a cell viability assay.

[56] = test system: NCI-H889; assay: cells; assay type: functional, cell-based; conditions: Homo sapiens;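 further: cell growth inhibition of the cell line, read out with a viability assay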
Description: SANGER: Inhibition of human NCI-H889 cell growth in a cell viability assay.

[57] = test system: P31-FUJ; assay: cells; assay type: functional, cell-based; conditions: Homo sapiens
Description: SANGER: Inhibition of human P31-FUJ cell growth in a cell viability assay.

[58] = test system: SCLC-21H; assay: cells; assay type: functional, cell-based; conditions: Homo sapiens
Description: SANGER: Inhibition of human SCLC-21H cell growth in a cell viability assay.

[59] = test system: SNU-C1; assay: cells; assay type: functional, cell-based; conditions: Homo sapiens
Description: SANGER: Inhibition of human SNU-C1 cell growth in a cell viability assay.

[60] = test system: A253 cell line; assay: cells; assay type: functional, cell-based; conditions: Homo sapiens
Description: SANGER: Inhibition of human A253 cell growth in a cell viability assay.

[61] = test system: U-698-M; assay: cells; assay type: functional, cell-based; conditions: Homo sapiens
Description: SANGER: Inhibition of human U-698-M cell growth in a cell viability assay.

[62] = test system: CHP-126; assay: cells; assay type: functional, cell-based; conditions: Homo sapiens
Description: SANGER: Inhibition of human CHP-126 cell growth in a cell viability assay.

[63] = test system: D-542MG; assay: cells; assay type: functional, cell-based; conditions: Homo sapiens
Description: SANGER: Inhibition of human D-542MG cell growth in a cell viability assay.

NC(=O)c1ncn([C@@H]2O[C@H](COP(=O)(O)O)[C@@H](O)[C@H]2O)c1N
IC50 [1]: > 2000 µM | IC50 [2]: 1380 µM | IC50 [3]: > 2000 µM | IC50 [4]: > 2000 µM | IC50 [5]: 1680 µM | IC50 [6]: > 2000 µM | IC50 [7]: > 2000 µM | IC50 [8]: > 2000 µM | IC50 [9]: 1690 µM | IC50 [10]: > 2000 µM | IC50 [11]: > 2000 µM | IC50 [12]: > 2000 µM | IC50 [13]: 89.4 µM | IC50 [14]: > 2000 µM | IC50 [15]: 1370 µM | IC50 [16]: > 2000 µM | IC50 [17]: > 2000 µM | IC50 [18]: > 2000 µM | IC50 [19]: 901 µM | IC50 [20]: > 2000 µM | IC50 [21]: 1590 µM | IC50 [22]: > 2000 µM | IC50 [23]: > 2000 µM | IC50 [24]: > 2000 µM | IC50 [25]: 1480 µM | IC50 [26]: 1230 µM | IC50 [27]: > 2000 µM | IC50 [28]: > 2000 µM | IC50 [29]: 1220 µM | IC50 [30]: > 2000 µM | IC50 [31]: > 2000 µM | IC50 [32]: > 2000 µM | IC50 [33]: > 2000 µM | IC50 [34]: > 2000 µM | IC50 [35]: > 2000 µM | IC50 [36]: > 2000 µM | IC50 [37]: > 2000 µM | IC50 [38]: 321 µM | IC50 [39]: > 2000 µM | IC50 [40]: 1120 µM

Cc1[nH]c(/C=C2\C(=O)Nc3ccc(S(=O)(=O)Cc4c(Cl)cccc4Cl)cc32)c(C)c1C(=O)N1CCC[C@@H]1CN1CCCC1 [PHA-665752]
IC50 [41]: > 2 µM | IC50 [42]: > 2 µM | IC50 [43]: > 2 µM | IC50 [44]: > 2 µM | IC50 [45]: > 2 µM | IC50 [46]: > 2 µM | IC50 [47]: > 2 µM | IC50 [48]: > 2 µM | IC50 [49]: > 2 µM | IC50 [18]: > 2 µM | IC50 [19]: > 2 µM | IC50 [50]: > 2 µM | IC50 [51]: > 2 µM | IC50 [52]: > 2 µM | IC50 [53]: > 2 µM | IC50 [54]: > 2 µM | IC50 [55]: > 2 µM | IC50 [56]: > 2 µM | IC50 [57]: > 2 µM | IC50 [58]: > 2 µM | IC50 [59]: > 2 µM | IC50 [60]: > 2 µM | IC50 [61]: > 2 µM | IC50 [62]: > 2 µM

CCNc1cc(N[C@H]2CC[C@@H](O)CC2)nc(Nc2ccc3c(ccn3Cc3ccccc3)c2)n1
IC50 [41]: > 5.12 µM | IC50 [42]: > 5.12 µM | IC50 [43]: > 5.12 µM | IC50 [44]: > 5.12 µM | IC50 [45]: > 5.12 µM | IC50 [46]: > 5.12 µM | IC50 [47]: > 5.12 µM | IC50 [48]: > 5.12 µM | IC50 [49]: > 5.12 µM | IC50 [18]: > 5.12 µM | IC50 [19]: > 5.12 µM | IC50 [50]: > 5.12 µM | IC50 [51]: > 5.12 µM | IC50 [52]: > 5.12 µM | IC50 [53]: > 5.12 µM | IC50 [54]: > 5.12 µM | IC50 [55]: > 5.12 µM | IC50 [56]: > 5.12 µM | IC50 [57]: > 5.12 µM | IC50 [58]: > 5.12 µM | IC50 [59]: > 5.12 µM | IC50 [60]: > 5.12 µM | IC50 [61]: > 5.12 µM | IC50 [62]: > 5.12 µM

CCn1c(-c2nonc2N)nc2cnc(Oc3cccc(NC(=O)c4ccc(OCCN5CCOCC5)cc4)c3)cc21 [GSK-269962A]
IC50 [3]: 1.43 µM | IC50 [63]: > 2.5 µM | IC50 [41]: > 2.5 µM | IC50 [43]: > 2.5 µM | IC50 [44]: > 2.5 µM | IC50 [45]: > 2.5 µM | IC50 [46]: > 2.5 µM | IC50 [47]: 1.15 µM | IC50 [48]: > 2.5 µM | IC50 [49]: > 2.5 µM | IC50 [18]: > 2.5 µM | IC50 [19]: > 2.5 µM | IC50 [50]: > 2.5 µM | IC50 [51]: > 2.5 µM | IC50 [52]: 1.28 µM | IC50 [53]: > 2.5 µM | IC50 [54]: > 2.5 µM | IC50 [55]: > 2.5 µM | IC50 [56]: > 2.5 µM | IC50 [57]: > 2.5 µM | IC50 [58]: > 2.5 µM | IC50 [59]: > 2.5 µM | IC50 [60]: > 2.5 µM | IC50 [61]: > 2.5 µM | IC50 [62]: > 2.5 µM

— ChEMBL document CHEMBL1201861, “Genomics of Drug Sensitity in Cancer screening data, Wellcome Trust Sanger Institute”
